Data on 18 molecules can be found in patent US20260034111A1, “NOVEL HETEROCYCLES AS sPLA2-X INHIBITORS” (Cayman Chemical Company Incorporated, priority 2022, published 2026).

What all share (assay type): biochemical
Assay [1] deals with T1, recombinant human sPLA2-V enzyme (Homo sapiens, UniProt P39877).
T1 construct: made in house; host or cells: E. coli
T1 sequence (P39877 21-138): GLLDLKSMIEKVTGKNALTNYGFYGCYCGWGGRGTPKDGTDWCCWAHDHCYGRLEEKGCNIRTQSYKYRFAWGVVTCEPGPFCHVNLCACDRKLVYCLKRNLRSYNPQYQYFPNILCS
Kind of assay: sPLA2-V enzyme inhibition assay (thio-PC substrate, DTNB detection, absorbance 410 nm). The settings on record: class symbols; read-out: sPLA2 Type V Inhibition (IC50; nM). From the text:
(§1) Screening Compounds for Inhibition of sPLA2-X, sPLA2-V, and sPLA2-IIA Enzyme Activity
(§2) These sPLA2 enzymes hydrolyze the sn-2 acyl chains of glycerophospholipids, resulting in the release of a free fatty acid and a lysophospholipid. In the case of the thio-PC substrate, this enzymatic hydrolysis results in a free sulfhydryl group remaining on the lysophospholipid. This free sulfhydryl reacts with DTNB to produce the chromogenic product 5-nitro-2-thiobenzoic acid (TNB) which can be quantitated by absorbance at 410 nm. The amount of TNB produced reflects the hydrolytic activity of the enzyme.
(§3) The recombinant human sPLA2 groups IIA, V, and X enzymes were expressed in E. coli and purified to >90% purity by standard biochemical methods.
(§4) Procedure of Enzyme Inhibition for sPLA2-X • 1. […] Dilute the test compounds in 100% DMSO by half-log steps in a 96-well dilution plate using columns 1-11 (one compound per row). Column 12 contains DMSO alone with no compound. • 3. Prepare a 3.5 mM thio-PC substrate solution by drying down 7.2 mg of stock thio-PC in ethanol under a gentle stream of N2 gas. When dry, add 4 mL assay buffer (25 mM Tris, pH7.4; 100 mM KCl; 10 mM CaCl2; 0.1% Triton X-100) and warm in a 37° C. water bath for 20 minutes with intermittent vortexing. • 4. Prepare an “enzyme containing” reaction mix with the following components: 20.4 mL assay buffer; 2 mL DTNB (20 mM in 800 mM Tris, pH8.0); and 11.8 mg recombinant human sPLA2-X enzyme (>95% pure) diluted to a total of 0.8 mL assay buffer. • 5. Prepare a “no enzyme” reaction mix with the following components: 477 μL assay buffer and 45 μL DTNB. • 6. Dispense 58 μL “no enzyme” reaction mix into each of 8 wells (columns 23 and 24, rows M-P). • 7. Dispense 58 μL “enzyme containing” reaction mix into all remaining wells on the plate. • 8. From the 96-well compound dilution plate, add 2 μL from each well for each compound to each of 4 wells with “enzyme containing” reaction mix. Columns 23 and 24 on the assay plate will contain only DMSO (vehicle control). […] After compound addition, mix the contents of each well to ensure that the DMSO is evenly distributed in the well. • 9. Cover the plate and incubate in the dark at room temperature for 15 minutes. • 10. Add 10 μL of thio-PC substrate to all wells. The final concentration of thio-PC in the reactions is 0.5 mM. • 11. Cover the plate and incubate in the dark at room temperature for 30 minutes. • 12. Measure the absorbance of all wells at 410 nm. • 13. Determine the mean absorbance of the “no enzyme” wells. Subtract this value from the absorbance values determined for all other wells (these are now background corrected data). • 14. […] Procedure of Enzyme Inhibition for sPLA2-V • 1. […] Dilute the test compounds in 100% DMSO by half-log steps in a 96-well dilution plate using columns 1-11. Column 12 contains DMSO alone with no compound. • 3. Prepare a 3.5 mM thio-PC substrate solution by drying down 7.2 mg of stock thio-PC in ethanol under a gentle stream of N2 gas. When dry, add 4 mL assay buffer (25 mM Tris, pH7.4; 100 mM KCl; 10 mM CaCl2; 0.1% Triton X-100) and warm in a 37° C. water bath for 20 minutes with intermittent vortexing. • 4. Prepare an “enzyme containing” reaction mix with the following components: 20.4 mL assay buffer; 2 mL DTNB (20 mM in 800 mM Tris, pH8.0); and 12 mg recombinant human sPLA2-V enzyme (>95% pure) diluted to a total of 0.8 mL assay buffer. • 5. Prepare a “no enzyme” reaction mix with the following components: 477 μL assay buffer and […]. • 6. Dispense 58 μL “no enzyme” reaction mix into each of 8 wells (columns 23 and 24, rows M-P). • 7. Dispense 58 μL “enzyme containing” reaction mix into all remaining wells on the plate. • 8. From the 96-well compound dilution plate, add 2 μL from each well for each compound to each of 4 wells with “enzyme containing” reaction mix. Columns 23 and 24 on the assay plate will contain only DMSO (vehicle control).

In assay [2] the target is T2, sPLA2-X protein (Homo sapiens, UniProt O15496).
T2 sequence (O15496 43-165): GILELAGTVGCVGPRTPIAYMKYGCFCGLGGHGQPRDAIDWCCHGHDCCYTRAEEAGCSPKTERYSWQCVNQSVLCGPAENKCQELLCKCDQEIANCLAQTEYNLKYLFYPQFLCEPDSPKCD
Kind of assay: sPLA2-X enzyme inhibition assay (thio-PC substrate, DTNB detection, absorbance 410 nm). On the set-up: made in house; host or cells: E. coli. The note with it: class symbols; read-out: sPLA2 Type X Inhibition (IC50; nM).
Text: as §1, §2, §3, §4

Assay [3] addresses T3, recombinant human sPLA2-IIA enzyme (Homo sapiens, UniProt P14555).
T3 construct: made in house; host or cells: E. coli
T3 sequence (P14555 21-144): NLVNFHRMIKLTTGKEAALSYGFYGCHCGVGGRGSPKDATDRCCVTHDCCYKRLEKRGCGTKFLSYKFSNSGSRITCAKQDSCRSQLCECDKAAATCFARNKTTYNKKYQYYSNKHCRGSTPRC
Description: sPLA2-IIA enzyme inhibition assay (thio-PC substrate, DTNB detection, absorbance 410 nm). The note with it: class symbols; read-out: sPLA2 Type IIa Inhibition (IC50; nM).
Text: as §1, §2, §3, §4

A value given as a limit tells only on which side of the number the result lay.

Regarding `COc1cnc2cc(C(N)=O)n(-c3cccc(C4CC4C(=O)O)n3)c2c1` (single isomer, unassigned) [Compound 51, trans-2-(6-(2-carbamoyl-6-methoxy-1H-pyrrolo[3,2-b]pyridin-1-yl)pyridin-2-yl)cyclopropane-1-carboxylic acid], the half-maximal inhibitory concentration (IC50) in assay [1] is greater than 5000 nM; in assay [2], greater than 200 nM; in assay [3] it was greater than 1000 nM.
In the same order, the values of `NC(=O)c1cc2ccc(OC(F)(F)F)cc2n1-c1ccc2c(c1)C(CC(=O)O)CO2` (single isomer, unassigned; (+)) [Compound 1a, (+)-2-(5-(2-carbamoyl-6-(trifluoromethoxy)-1H-indol-1-yl)-2,3-dihydrobenzofuran-3-yl)acetic acid] are greater than 5000 nM, 50 to 200 nM and greater than 1000 nM.
In the case of `NC(=O)c1cc2ccc(OC(F)(F)F)cc2n1-c1ccc2c(c1)C(CC(=O)O)CO2` (stereo not drawn) [Compound 1, 2-(5-(2-carbamoyl-6-(trifluoromethoxy)-1H-indol-1-yl)-2,3-dihydrobenzofuran-3-yl)acetic acid], the IC50 was greater than 5000 nM in assay [1], 50 to 200 nM in assay [2] and greater than 1000 nM in assay [3].
As for `CC(C)(Sc1cccc(-n2c(C(N)=O)cc3ccc(OC(F)(F)F)cc32)c1)C(=O)O` [Compound 2, 2-((3-(2-carbamoyl-6-(trifluoromethoxy)-1H-indol-1-yl)phenyl)thio)-2-methylpropanoic acid], the IC50 in assay [1] is 500 to 1500 nM; in assay [2], less than 20 nM; in assay [3], 200 to 500 nM.
In the same order, the values of `CC(C)(Cc1cccc(-n2c(C(N)=O)cc3ccc(OC(F)(F)F)cc32)c1)C(=O)O` [Compound 3, 3-(3-(2-carbamoyl-6-(trifluoromethoxy)-1H-indol-1-yl)phenyl)-2,2-dimethylpropanoic acid] are 1500 to 5000 nM, less than 20 nM and 500 to 1000 nM.
In the same order, the values of `NC(=O)c1cc2ccc(OC(F)(F)F)cc2n1-c1cccc(SC2(C(=O)O)CCC2)c1` [Compound 4, 1-((3-(2-carbamoyl-6-(trifluoromethoxy)-1H-indol-1-yl)phenyl)thio)cyclobutane-1-carboxylic acid] are less than 500 nM, less than 20 nM and 200 to 500 nM.
`C/C(=C\C(=O)O)c1cccc(-n2c(C(N)=O)cc3ccc(OC(F)(F)F)cc32)n1` [Compound 6, (E)-3-(6-(2-carbamoyl-6-(trifluoromethoxy)-1H-indol-1-yl)pyridin-2-yl)but-2-enoic acid]: the values for the IC50 in assay [1], in assay [2] and in assay [3] were greater than 5000 nM, greater than 200 nM and greater than 1000 nM, respectively.
In the case of `NC(=O)c1sc2ccc(OC(F)(F)F)cc2c1-c1ccc2c(c1)C(CC(=O)O)CO2` (stereo not drawn) [Compound 7, 2-(5-(2-carbamoyl-5-(trifluoromethoxy)benzo[b]thiophen-3-yl)-2,3-dihydrobenzofuran-3-yl)acetic acid], the IC50 in assay [1] was greater than 5000 nM; in assay [2], greater than 200 nM; in assay [3] it was greater than 1000 nM.
In the same order, the values of `CC(C)(Cc1cccc(-n2c(C(N)=O)cc3ccc(OC(F)(F)F)cc32)n1)C(=O)O` [Compound 8, 3-(6-(2-carbamoyl-6-(trifluoromethoxy)-1H-indole-1-yl)pyridin-2-yl)-2,2-dimethylpropanoic acid] are greater than 5000 nM, 50 to 200 nM and greater than 1000 nM.
For the molecule `NC(=O)c1cc2ccc(OC(F)(F)F)cc2n1-c1ccc2c(c1)OCC2CC(=O)O` (stereo not drawn) [Compound 9, 2-(6-(2-carbamoyl-6-(trifluoromethoxy)-1H-indol-1-yl)-2,3-dihydrobenzofuran-3-yl)acetic acid], the IC50 in assay [1] was greater than 5000 nM; in assay [2], greater than 200 nM; in assay [3], greater than 1000 nM.
Consider `NC(=O)c1cc2ccc(OC(F)(F)F)cc2n1-c1cccc(CC2(C(=O)O)CCC2)c1` [Compound 10, 1-(3-(2-carbamoyl-6-(trifluoromethoxy)-1H-indol-1-yl)benzyl)cyclobutane-1-carboxylic acid], for which the IC50 lay in the range of 500 to 1500 nM in assay [1], 20 to 50 nM in assay [2] and 500 to 1000 nM in assay [3].
The like results for `CC(C)(C)OC(=O)N1CC(CC(=O)O)c2cc(-n3c(C(N)=O)cc4ccc(OC(F)(F)F)cc43)ccc21` (stereo not drawn) [Compound 11, 2-(1-(tert-butoxycarbonyl)-5-(2-carbamoyl-6-(trifluoromethoxy)-1H-indol-1-yl)indolin-3-yl)acetic acid] were, in that order, greater than 5000 nM, 50 to 200 nM and greater than 1000 nM.
In the same order, the values of `NC(=O)c1cc2ccc(OC(F)(F)F)cc2n1-c1ccc2occ(CC(=O)O)c2c1` [Compound 12, 2-(5-(2-carbamoyl-6-(trifluoromethoxy)-1H-indol-1-yl)benzofuran-3-yl)acetic acid] are greater than 5000 nM, 50 to 200 nM and greater than 1000 nM.
Take `NC(=O)c1sc2ccccc2c1-c1cccc(CCC(=O)O)c1` [Compound 13, 3-(3-(2-carbamoylbenzo[b]thiophen-3-yl)phenyl)propanoic acid]: the IC50 was greater than 5000 nM in assay [1], greater than 200 nM in assay [2] and greater than 1000 nM in assay [3].
The like results for `CNC(=O)c1cc2ccc(OC(F)(F)F)cc2n1-c1cccc(CCC(=O)O)c1` [Compound 14, 3-(3-(2-(methylcarbamoyl)-6-(trifluoromethoxy)-1H-indol-1-yl)phenyl)propanoic acid] were, in that order, greater than 5000 nM, greater than 200 nM and greater than 1000 nM.
The like results for `NC(=O)c1cc2ccc(OC(F)(F)F)cc2n1-c1ccc2oc(C(=O)O)cc2c1` [Compound 16, 5-(2-carbamoyl-6-(trifluoromethoxy)-1H-indol-1-yl)benzofuran-2-carboxylic acid] were, in that order, greater than 5000 nM, 50 to 200 nM and greater than 1000 nM.
The like results for `NC(=O)c1oc2ccc(OC(F)(F)F)cc2c1-c1cccc(CCC(=O)O)c1` [Compound 17, 3-(3-(2-carbamoyl-5-(trifluoromethoxy)benzofuran-3-yl)phenyl)propanoic acid] were, in that order, greater than 5000 nM, greater than 200 nM and greater than 1000 nM.
Regarding `NC(=O)c1cc2ccc(OC(F)(F)F)cc2n1-c1cccc(CCC(=O)O)n1` [Compound 18, 3-(6-(2-carbamoyl-6-(trifluoromethoxy)-1H-indol-1-yl)pyridin-2-yl)propanoic acid], the concentration for half-maximal inhibition (IC50) in assay [1] was 1500 to 5000 nM; in assay [2], less than 20 nM; in assay [3] it was greater than 1000 nM.

A word on the IC50: it is the concentration that gives 50% inhibition.
